Reference: patent US9777008B2, “PRMT5 inhibitors and uses thereof” (Epizyme, Inc., priority 2012, dated 2017)

Molecular target: PRMT5/MEP50 (Homo sapiens (Human), UniProt O14744)
Assay: PRMT5 Biochemical Assay (PRMT5/MEP50 enzyme assay on peptide substrate, 3H-SAM Flashplate)
Method in brief: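 FLAG-PRMT5/His-MEP50 from Sf9 cells, 4 nM, with 40 nM biotinylated H4(1-15) peptide and 75 nM 3H-SAM in 20 mM Bicine pH 7.6, 1% DMSO; compound preincubated 30 min at 25 °C. Stopped with 600 uM cold SAM; 3H-peptide captured on streptavidin Flashplate, counted; % inhibition versus DMSO and 100 uM SAH controls, IC50 by 3- or 4-parameter fit.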

PRMT5/MEP50, sequence (O14744 other isoform, or with tags, fused parts or gaps): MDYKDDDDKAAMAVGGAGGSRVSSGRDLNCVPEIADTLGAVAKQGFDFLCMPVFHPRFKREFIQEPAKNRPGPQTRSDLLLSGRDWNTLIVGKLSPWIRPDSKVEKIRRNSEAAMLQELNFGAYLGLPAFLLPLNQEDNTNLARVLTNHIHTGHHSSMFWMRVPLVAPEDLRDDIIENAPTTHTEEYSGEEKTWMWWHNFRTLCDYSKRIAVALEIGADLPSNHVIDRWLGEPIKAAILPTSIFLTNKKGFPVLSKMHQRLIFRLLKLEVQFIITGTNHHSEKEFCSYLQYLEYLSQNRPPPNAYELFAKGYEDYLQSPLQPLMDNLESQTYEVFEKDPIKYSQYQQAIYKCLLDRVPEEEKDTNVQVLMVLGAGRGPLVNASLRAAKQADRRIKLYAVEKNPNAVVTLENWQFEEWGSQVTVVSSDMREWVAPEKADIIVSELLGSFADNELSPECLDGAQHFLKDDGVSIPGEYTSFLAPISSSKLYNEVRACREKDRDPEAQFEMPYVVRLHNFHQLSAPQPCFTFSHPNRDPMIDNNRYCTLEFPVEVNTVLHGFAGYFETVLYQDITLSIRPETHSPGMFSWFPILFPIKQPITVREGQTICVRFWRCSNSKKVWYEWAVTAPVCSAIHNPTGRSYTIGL
PRMT5/MEP50, sequence (Q9BQA1 other isoform, or with tags, fused parts or gaps partner): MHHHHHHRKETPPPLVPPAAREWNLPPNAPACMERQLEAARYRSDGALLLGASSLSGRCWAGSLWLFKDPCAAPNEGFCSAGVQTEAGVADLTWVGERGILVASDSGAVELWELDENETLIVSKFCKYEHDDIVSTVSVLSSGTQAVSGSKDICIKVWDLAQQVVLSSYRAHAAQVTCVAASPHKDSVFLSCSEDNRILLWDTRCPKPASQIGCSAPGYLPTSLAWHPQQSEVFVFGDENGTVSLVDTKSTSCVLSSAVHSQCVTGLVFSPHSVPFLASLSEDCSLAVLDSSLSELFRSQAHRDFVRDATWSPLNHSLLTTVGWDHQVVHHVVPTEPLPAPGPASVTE

Molecule | IC50 [µM]
OC(COc1cccc(-c2ccc3cn[nH]c3c2)c1)CN1CCc2ccccc2C1 (centres unmarked) [Compound 58, 1-(3-(1H-indazol-6-yl)phenoxy)-3-(3,4-dihydroisoquinolin-2(1H)-yl)propan-2-ol] | 0.101 to 1
N-(3-(3-(3,4-dihydroisoquinolin-2(1H)-yl)-2-hydroxypropoxy)phenyl)pyrimidine-5-carboxamide [Compound 145] | 0.101 to 1
